Data reported in US12264158B2, “Protein kinase MKK4 inhibitors for promoting liver regeneration or reducing or preventing hepatocyte death” (HEPAREGENIX GMBH, priority 2018, dated 2025).
pIC50: −log10 of the molar value.

Columns and labels:
[1] = molecular target: T1, MKK4 (Homo sapiens, UniProt P45985); assay: KINOMEscan competition binding assay, MKK4 potency; conditions: concentration of 100 nM
T1 construct: S84/D399; host or cells: HEK-293
T1 sequence (P45985 84-399): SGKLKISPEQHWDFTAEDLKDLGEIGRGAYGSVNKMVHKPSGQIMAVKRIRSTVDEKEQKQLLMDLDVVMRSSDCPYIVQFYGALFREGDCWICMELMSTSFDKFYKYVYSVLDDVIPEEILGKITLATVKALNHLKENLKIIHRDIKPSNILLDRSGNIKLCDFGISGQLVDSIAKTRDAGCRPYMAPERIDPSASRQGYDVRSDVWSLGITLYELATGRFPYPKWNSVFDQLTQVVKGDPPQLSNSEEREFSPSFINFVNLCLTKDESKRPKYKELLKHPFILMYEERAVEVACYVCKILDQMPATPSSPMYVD
Outline: (§1)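 DNA-tagged kinases expressed in HEK-293 cells compete between test compound and immobilized ligand on blocked beads. Bound kinase is eluted and quantified by qPCR of the DNA tag. Compounds were tested at the indicated final concentrations, prepared from 10 mM stocks.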

[2] = molecular target: T2, JNK1 (Homo sapiens, UniProt P45983); assay: KINOMEscan competition binding assay, selectivity against off-target JNK1; conditions: concentration of 100 nM
T2 construct: M1/Q384; host or cells: HEK-293
T2 sequence (P45983 1-384 isoform P45983-2): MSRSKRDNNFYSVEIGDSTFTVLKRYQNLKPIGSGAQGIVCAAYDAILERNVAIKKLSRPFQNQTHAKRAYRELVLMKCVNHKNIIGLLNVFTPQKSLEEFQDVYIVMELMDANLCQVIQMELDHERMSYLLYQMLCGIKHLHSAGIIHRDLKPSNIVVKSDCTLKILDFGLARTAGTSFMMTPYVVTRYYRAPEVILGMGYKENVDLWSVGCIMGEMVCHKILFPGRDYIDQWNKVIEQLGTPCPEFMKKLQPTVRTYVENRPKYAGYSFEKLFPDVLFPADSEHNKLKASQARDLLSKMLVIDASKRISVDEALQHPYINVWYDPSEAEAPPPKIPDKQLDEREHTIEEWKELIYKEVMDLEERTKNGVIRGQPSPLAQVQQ
Outline: as §1

[3] = molecular target: T3, MKK7 (Homo sapiens, UniProt O14733); assay: KINOMEscan competition binding assay, selectivity against off-target MKK7; conditions: concentration of 100 nM
T3 construct: M1/R419; host or cells: HEK-293
T3 sequence (O14733 1-419): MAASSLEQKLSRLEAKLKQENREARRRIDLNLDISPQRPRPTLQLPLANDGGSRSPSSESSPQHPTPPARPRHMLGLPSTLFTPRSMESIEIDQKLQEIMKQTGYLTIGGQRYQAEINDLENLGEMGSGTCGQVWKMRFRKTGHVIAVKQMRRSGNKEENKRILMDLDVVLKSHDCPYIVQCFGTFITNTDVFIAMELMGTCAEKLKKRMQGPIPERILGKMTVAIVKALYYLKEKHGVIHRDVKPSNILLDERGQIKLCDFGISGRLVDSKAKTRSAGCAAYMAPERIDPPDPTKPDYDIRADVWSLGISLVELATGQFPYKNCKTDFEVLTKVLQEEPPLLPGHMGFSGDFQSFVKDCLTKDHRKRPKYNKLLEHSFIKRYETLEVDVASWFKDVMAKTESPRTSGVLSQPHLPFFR
Outline: as §1

[4] = molecular target: BRaf (Homo sapiens, UniProt P15056); assay: KINOMEscan competition binding assay, selectivity against off-target BRaf; conditions: concentration of 100 nM
BRaf, sequence (P15056 whole entry): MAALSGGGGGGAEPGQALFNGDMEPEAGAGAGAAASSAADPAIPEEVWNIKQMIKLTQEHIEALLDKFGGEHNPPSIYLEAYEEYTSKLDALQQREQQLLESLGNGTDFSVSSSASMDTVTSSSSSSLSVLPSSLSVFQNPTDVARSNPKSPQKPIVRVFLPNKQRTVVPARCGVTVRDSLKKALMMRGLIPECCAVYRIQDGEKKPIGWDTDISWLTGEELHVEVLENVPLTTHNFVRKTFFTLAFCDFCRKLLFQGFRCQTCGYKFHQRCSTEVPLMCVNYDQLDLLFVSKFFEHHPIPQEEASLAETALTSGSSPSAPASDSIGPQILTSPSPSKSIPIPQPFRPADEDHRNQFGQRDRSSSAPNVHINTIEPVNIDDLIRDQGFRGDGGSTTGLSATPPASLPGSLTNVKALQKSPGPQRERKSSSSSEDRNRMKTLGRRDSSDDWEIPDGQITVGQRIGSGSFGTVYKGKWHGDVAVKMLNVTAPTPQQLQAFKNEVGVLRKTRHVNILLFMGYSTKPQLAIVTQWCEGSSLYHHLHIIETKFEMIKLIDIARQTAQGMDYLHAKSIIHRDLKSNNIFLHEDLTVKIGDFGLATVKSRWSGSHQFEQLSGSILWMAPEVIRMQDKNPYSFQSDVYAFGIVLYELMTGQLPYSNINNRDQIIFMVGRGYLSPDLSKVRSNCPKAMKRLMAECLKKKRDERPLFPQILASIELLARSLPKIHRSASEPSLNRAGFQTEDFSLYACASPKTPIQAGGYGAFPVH
Outline: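 Competition binding: test compound competes with an immobilized ligand for DNA-tagged BRaf, and kinase captured on the ligand is quantified by qPCR of the DNA tag. Compounds from 10 mM stocks were tested at the indicated final concentrations.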

[5] = molecular target: T4, MKK4-MEKK2 mix (Homo sapiens, UniProt P45985); assay: Radiometric protein kinase assay, MEKK2 dependent MKK4 activation (cascade); assay type: biochemical; conditions: substrate JNK1 KRKR, ATP 0.2 μM, read-out: Cascade, potency derived from IC50-values
T4 construct: MEKK2, recombinant, active: ProQinase product #0583-0000-1
T4 sequence (P45985 2-399): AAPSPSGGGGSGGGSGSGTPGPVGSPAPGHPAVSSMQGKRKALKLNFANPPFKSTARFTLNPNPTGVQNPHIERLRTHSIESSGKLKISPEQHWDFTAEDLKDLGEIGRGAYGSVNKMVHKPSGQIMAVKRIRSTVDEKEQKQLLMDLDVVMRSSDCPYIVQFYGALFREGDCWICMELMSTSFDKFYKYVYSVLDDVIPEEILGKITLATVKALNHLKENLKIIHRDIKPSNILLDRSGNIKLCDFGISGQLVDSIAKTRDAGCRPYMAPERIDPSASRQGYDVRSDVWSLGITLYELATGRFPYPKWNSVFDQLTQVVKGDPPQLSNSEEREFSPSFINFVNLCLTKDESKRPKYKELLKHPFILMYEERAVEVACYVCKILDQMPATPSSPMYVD
Experimental: The activation step is done in 50 mM HEPES pH 7.5, 50 mM NaCl, 3.8 mM MgCl2, 2.5 mM DTT, 10% (v/v) glycerol. Final DMSO concentration is 1%. The activation mixture is pipetted in the following order • 2.5 μl compound in 4% DMSO • 2.5 μl ATP/MgCl2 mix • 5 μl premixed kinase solution MKK4:MEKK2 10:1 (w/w)
Protein concentrations in the activation mix are 1 μM MKK4 and 50 nM MEKK2.
(§2) A radiometric protein kinase assay was used for measuring the kinase activity of the respective protein kinases. All kinase assays were performed in 96-well polypropylene plates. After the reactions were stopped, the assay mixtures were transferred to 96-well MSFC filter-plates (Millipore). The reaction mix was passed through the filter membrane by aspiration, the membrane was washed 3 times with 150 mM H3PO4, once with ethanol, dried and liquid scintillation cocktail was added. Radioactivity was determined by counting of the samples in a Microbeta multiwell scintillation counter (Wallac).

[6] = molecular target: T5, MKK4 active (Homo sapiens, UniProt P45985); assay: Radiometric protein kinase assay, MKK4 active; assay type: biochemical; conditions: substrate JNK1 KRKR, ATP 0.2 μM, read-out: MKK4, potency derived from IC50-values
T5 construct: purchased ProQinase #0948-0000-1
T5 sequence (P45985 1-399): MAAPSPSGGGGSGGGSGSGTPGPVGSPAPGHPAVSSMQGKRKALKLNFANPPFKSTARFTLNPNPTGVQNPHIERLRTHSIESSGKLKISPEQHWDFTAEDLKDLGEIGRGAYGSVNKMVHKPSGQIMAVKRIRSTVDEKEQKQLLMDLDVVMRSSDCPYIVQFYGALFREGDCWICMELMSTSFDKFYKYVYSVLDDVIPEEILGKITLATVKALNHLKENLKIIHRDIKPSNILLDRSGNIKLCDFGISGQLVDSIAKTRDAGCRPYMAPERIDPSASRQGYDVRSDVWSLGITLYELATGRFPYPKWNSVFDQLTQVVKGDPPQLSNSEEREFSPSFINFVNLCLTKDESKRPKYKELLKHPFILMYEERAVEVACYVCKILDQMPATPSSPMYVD
Experimental: as §2

[7] = molecular target: T6, MEKK2 (Homo sapiens, UniProt Q9Y2U5); assay: Radiometric protein kinase assay, MEKK2; assay type: biochemical; conditions: substrate Casein, ATP 0.2 μM; read-out: MEKK2, potency derived from IC50-values
T6 construct: purchased ProQinase #0583-0000-1
T6 sequence (Q9Y2U5 1-619): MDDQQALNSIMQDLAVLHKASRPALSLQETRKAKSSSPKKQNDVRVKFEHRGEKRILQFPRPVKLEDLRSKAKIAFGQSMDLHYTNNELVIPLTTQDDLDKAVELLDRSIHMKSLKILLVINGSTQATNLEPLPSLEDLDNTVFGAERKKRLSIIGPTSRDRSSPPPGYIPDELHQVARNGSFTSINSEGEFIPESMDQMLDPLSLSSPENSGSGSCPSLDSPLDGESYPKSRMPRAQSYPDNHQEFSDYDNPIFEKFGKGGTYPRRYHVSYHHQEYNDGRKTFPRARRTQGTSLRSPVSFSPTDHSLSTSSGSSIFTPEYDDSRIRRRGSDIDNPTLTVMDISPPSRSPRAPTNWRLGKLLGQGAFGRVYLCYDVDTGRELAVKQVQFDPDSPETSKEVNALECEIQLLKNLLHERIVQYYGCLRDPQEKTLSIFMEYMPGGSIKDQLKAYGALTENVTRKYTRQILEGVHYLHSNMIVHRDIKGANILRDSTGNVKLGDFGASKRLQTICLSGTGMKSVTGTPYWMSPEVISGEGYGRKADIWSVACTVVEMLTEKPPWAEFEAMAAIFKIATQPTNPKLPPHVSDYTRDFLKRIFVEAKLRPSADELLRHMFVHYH
Outline: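 Kinase activity measured radiometrically: stopped reactions were captured on filter plates, washed with 150 mM H3PO4 and ethanol, and incorporated radioactivity counted by liquid scintillation.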

SMILES	MKK4, residual percent of control binding (PoC) [1]	Selectivity vs. JNK1, ratio PoC(JNK1)/PoC(MKK4) [2]	Selectivity vs. MKK7, ratio PoC(MKK7)/PoC(MKK4) [3]	Selectivity vs. BRaf, ratio PoC(BRaf)/PoC(MKK4) [4]	pIC50 [5]	pIC50 [6]	pIC50 [7]
CCCS(=O)(=O)Nc1ccc(F)c(C(=O)c2n[nH]c3ncc(-c4ccc(N)cc4)cc23)c1F [Example 18, N-(3-(5-(4-aminophenyl)-1H-pyrazolo[3,4-b]pyridine-3-carbonyl)-2,4-difluorophenyl)-propane-1-sulfonamide]	+++ (PoC < 1)	+++ (PoC(JNK1)/PoC(MKK4) ≥ 30)	+++ (PoC(MKK7)/PoC(MKK4) ≥ 30)	++ (30 > PoC(BRaf)/PoC(MKK4) ≥ 10)	6.00 to 6.30	> 6.30	5.00 to 6.00
CCCS(=O)(=O)Nc1ccc(F)c(C(=O)c2n[nH]c3ncc(-c4ccc(O)cc4)cc23)c1F [Example 19, N-(2,4-difluoro-3-(5-(4-hydroxyphenyl)-1H-pyrazo-lo[3,4-b]pyridine-3-carbonyl)-phenyl)propane-1-sulfon-amide]	+++ (PoC < 1)	+++ (PoC(JNK1)/PoC(MKK4) ≥ 30)	+++ (PoC(MKK7)/PoC(MKK4) ≥ 30)	++ (30 > PoC(BRaf)/PoC(MKK4) ≥ 10)	5.00 to 6.00	> 6.30	5.00 to 6.00
CCCS(=O)(=O)Nc1ccc(F)c(C(=O)c2n[nH]c3ncc(-c4ccccc4O)cc23)c1F [Example 21, N-(2,4-difluoro-3-(5-(2-hydroxyphenyl)-1H-pyrazo-lo[3,4-b]pyridine-3-carbonyl)-phenyl)propane-1-sulfon-amide]	++ (1 ≤ PoC < 10)	+ (10 > PoC(JNK1)/PoC(MKK4) ≥ 3)	++ (30 > PoC(MKK7)/PoC(MKK4) ≥ 10)	+ (10 > PoC(BRaf)/PoC(MKK4) ≥ 3)	5.00 to 6.00	6.00 to 6.30	5.00 to 6.00
CCCS(=O)(=O)Nc1ccc(F)c(C(=O)c2n[nH]c3ncc(-c4ccc([N+](=O)[O-])cc4)cc23)c1F [Example 23, N-(2,4-difluoro-3-(5-(4-nitrophenyl)-1H-pyrazolo-[3,4-b]pyridine-3-carbonyl)-phenyl)propane-1-sulfon-amide]	++ (1 ≤ PoC < 10)	++ (30 > PoC(JNK1)/PoC(MKK4) ≥ 10)	++ (30 > PoC(MKK7)/PoC(MKK4) ≥ 10)	+ (10 > PoC(BRaf)/PoC(MKK4) ≥ 3)	< 5.00	< 5.00	< 5.00

Results, then the molecule that gave them:

MKK4, residual percent of control binding (PoC) [1]	Selectivity vs. JNK1, ratio PoC(JNK1)/PoC(MKK4) [2]	Selectivity vs. MKK7, ratio PoC(MKK7)/PoC(MKK4) [3]	Selectivity vs. BRaf, ratio PoC(BRaf)/PoC(MKK4) [4]	pIC50 [5]	pIC50 [6]	pIC50 [7]	SMILES
++ (1 ≤ PoC < 10)	+++ (PoC(JNK1)/PoC(MKK4) ≥ 30)	+++ (PoC(MKK7)/PoC(MKK4) ≥ 30)	O (PoC(BRaf)/PoC(MKK4) < 3)	< 5.00	6.00 to 6.30	< 5.00	CCCS(=O)(=O)Nc1ccc(F)c(C(=O)c2n[nH]c3ncc(-c4ccc(S(C)(=O)=O)cc4)cc23)c1F [Example 24, N-(2,4-difluoro-3-(5-(4-(methylsulfonyl)phenyl)-1H-pyrazolo[3,4-b]pyridine-3-carbonyl)phenyl)propane-1-sulfonamide]
++ (1 ≤ PoC < 10)	+++ (PoC(JNK1)/PoC(MKK4) ≥ 30)	+++ (PoC(MKK7)/PoC(MKK4) ≥ 30)	++ (30 > PoC(BRaf)/PoC(MKK4) ≥ 10)	5.00 to 6.00	6.00 to 6.30	< 5.00	CCCS(=O)(=O)Nc1ccc(F)c(C(=O)c2n[nH]c3ncc(-c4ccc(F)cc4)cc23)c1F [Example 25, N-(2,4-difluoro-3-(5-(4-fluorophenyl)-1H-pyrazo-lo[3,4-b]pyridine-3-carbonyl)-phenyl)propane-1-sulfon-amide]
++ (1 ≤ PoC < 10)	+++ (PoC(JNK1)/PoC(MKK4) ≥ 30)	+++ (PoC(MKK7)/PoC(MKK4) ≥ 30)	O (PoC(BRaf)/PoC(MKK4) < 3)	6.00 to 6.30	> 6.30	5.00 to 6.00	CCCS(=O)(=O)Nc1ccc(F)c(C(=O)c2n[nH]c3ncc(-c4cccc(N)c4)cc23)c1F [Example 27, N-(3-(5-(3-aminophenyl)-1H-pyrazolo[3,4-b]pyridine-3-carbonyl)-2,4-difluorophenyl)-propane-1-sulfonamide]
++ (1 ≤ PoC < 10)	+++ (PoC(JNK1)/PoC(MKK4) ≥ 30)	+++ (PoC(MKK7)/PoC(MKK4) ≥ 30)	++ (30 > PoC(BRaf)/PoC(MKK4) ≥ 10)	5.00 to 6.00	> 6.30	5.00 to 6.00	CCCS(=O)(=O)Nc1ccc(F)c(C(=O)c2n[nH]c3ncc(-c4ccccc4F)cc23)c1F [Example 31, N-(2,4-difluoro-3-(5-(2-fluorophenyl)-1H-pyrazo-lo[3,4-b]pyridine-3-carbonyl)phenyl)propane-1-sulfon-amide]
